Reference: patent US20090131512A1, “Inhibition of type I in IFN production” (Dynavax Technologies Corp., priority 2007, published 2009)
Entries after “also recorded” stand apart in the source; their conditions may differ.

Key:
[1] = system: purified human pDC; test: IFN-α production by TLR-activated purified pDC, ELISA; assay type: cell-based; details: for IFN-α production: subunit-specific PI3K inhibitors
[2] = system: NF-kB p65 (pS529); test: NF-kB p65 phosphorylation in pDC, flow cytometry; assay type: cell-based, human; details: CpG-C 1 μM; LY 1 or 5 μM, NF-kB inhibitor 0.5 μM; 90 min
Method: Accordingly, purified PDC were cultured with CpG-C ISS (1 μM) with or without PI3K inhibitor LY (1 μM or 5 μM) or NF-kB inhibitor (0.5 μM) for 90 min and analyzed by NF-kB flow cytometry. As described above, negatively purified pDC were stimulated with CpG-C and cells were immediately fixed with 4% of paraformaldehyde for 15 min a 37 C. Cells were then washed, permeabilized with PermBuffer III (BD bioscience) for 30 minutes on ice and stained with either Alexa-647 anti-human NF-kB p65 (pS529) for 30 min and then analyzed by flow cytometry.

[3] = system: purified pDC; test: IL-6 and TNF-α production by TLR-activated pDC, ELISA and real-time PCR; assay type: cell-based, human; details: CpG-A or CpG-B 0.5 μM; 16 hr; ELISA
[4] = system: purified pDC; test: pDC viability, flow cytometry based LIVE/DEAD assay; assay type: cell-based, human; details: CpG-C 1 μM plus various concentrations of LY; 20 h; listed as LY
Method: Purified pDC were stimulated with CpG-C ISS (1 μM) either alone or in combination with various concentration of PI3K inhibitor LY. After 20 h, viability was assessed using a flow cytometry based viability assay (LIVE/DEAD Viability/Cytotoxicity Kit from Molecular Probe). Average of […] independent donors is shown.

O=C1NC(=O)/C(=C/c2ccc3c(c2)OC(F)(F)O3)S1 [AS604850]
concentration at which an effect on IFN-α production is observed ([1]; CpG-C 1 μM, 16 hr, specificity for gamma subunit lost): > 20 µM | IFN-α production ([1]; CpG-C 1 μM, 16 hr): did not observe any effect

NC(=O)Nc1sc(-c2ccc(F)cc2)cc1C(N)=O [NF-kB inhibitor]
NF-kB phosphorylation [2]: inhibited

Cc1ccccc1-n1c(Cn2cnc3c(N)ncnc32)nc2cccc(C)c2c1=O [IC87114]
IFN-α production ([1]; CpG-C 1 μM, 16 hr): inhibited

O=c1cc(N2CCOCC2)oc2c(-c3ccccc3)cccc12 [LY294002]
IL-6 production in response to CpG-A and CpG-B [3]: no significant inhibition | pDC viability [4]: no negative effect; also recorded: does not affect | inhibition of IFN-α ([1]; LY concentrations as low as 0.08 μM, TLR9): 50% | concentration of maximal effect on IFN-α production ([1]; both TLR7 and TLR9 ligands, 16 hr): 1.25 µM
